Assay results published in patent US20110224079A1, “SPIROHETEROCYCLIC N-OXYAMIDES AS PESTICIDES” (SYNGENTA CROP PROTECTION LLC, priority 2008, published 2011).

Legend:
[1] = tested on: Aphis Craccivora (cowpea aphid); test: Example B11: translaminar activity against Aphis craccivora on French bean leaves; format: in vivo; conditions: 120 h, upper leaf side painted, aphids on lower side, 5 days
Experimental: Translaminar Activity Against Aphis Craccivora (Cowpea Aphid)
French bean leaves (Phaseolus vulgaris) are infested with about 20 mixed age individuals on the lower leaf side using clip cages. 1 day after the infestation, the upper side of the leaves is treated with the test solution by painting. 5 days later, samples are checked for mortality.

[2] = tested on: Myzus persicae (green peach aphid); test: Example B1: activity against Myzus persicae, sprayed sunflower leaf discs (feeding/residual contact, preventive); conditions: foliar, 144 h, read-out: activity (mortality)
[3] = tested on: Myzus persicae (green peach aphid); test: Example B13: drench activity against Myzus persicae, pea seedlings in field soil; conditions: 168 h, read-out: drench activity (mortality)
[4] = tested on: Aonidiella Aurantii (red scale); test: Example B12: activity against Aonidiella aurantii, dipped potato tubers; format: in vivo; conditions: 6-8 weeks after application, read-out: activity (number of crawlers of the next generation)
Text: Activity Against Aonidiella Aurantii (Red Scale)
Treatment of potato tubers by dipping the in the test solution. One day later, tubers are infested with about 50 crawlers. 6-8 weeks after application samples are checked for the number of crawlers of the next generation (compared to the non treated samples).

[5] = tested on: Bemisia tabaci (tobacco white fly); test: Example B7: activity against Bemisia tabaci, sprayed bean plants (larvicide, contact/feeding); format: in vivo; conditions: 504 h, bean plants with N-2 nymphs sprayed, three weeks, read-out: activity (efficacy, number of emerged adults)
Experimental: Activity Against Bemisia tabaci (Tobacco White Fly)
(Larvicide, Contact/Feeding)
Bean plants are infested with 20-30 adults that were removed after a 4 day egg-laying period. After another 7 days, bean plants with hatched nymphs (N-2) are treated (2 replicates) with the test solutions in a spray chamber. Three weeks later, samples are checked for number of emerged adults. Efficacy was calculated by comparing number of emerged adults in treated and non treated samples.

[6] = tested on: Tetranychus urticae (two-spotted spider mite); test: Example B4: activity against Tetranychus urticae, sprayed bean leaf discs (feeding/residual contact, preventive); conditions: foliar, 192 h, read-out: activity (egg, larval and adult mortality)
[7] = tested on: Nilaparvata lugens (brown rice planthopper); test: Example B8: activity against Nilaparvata lugens, sprayed rice seedlings (larvicide, feeding/contact); conditions: in Oryza sativa, read-out: activity (mortality, growth regulation, effects on F1 generation)
[8] = tested on: Myzus persicae (green peach aphid); test: Example B2: activity against Myzus persicae, pea seedling roots in test solution (systemic/feeding, curative); conditions: 144 h, read-out: activity (mortality)
[9] = tested on: Myzus persicae (green peach aphid); test: Example B17: activity against Myzus persicae on sprayed pepper plants (feeding/residual contact); format: in vivo; conditions: 144 h, infested pepper plants sprayed, 6 days
[10] = tested on: Aphis Craccivora (cowpea aphid); test: Example B9: activity against Aphis craccivora, sprayed pea seedlings (contact/feeding); format: in vivo; conditions: 144 h, infested pea seedlings sprayed, 6 days
Text: (§1) Activity Against Aphis Craccivora (Cowpea Aphid)
(Mixed Population, Contact/Feeding)
6 days after treatment, samples are checked for mortality.

[11] = tested on: Aphis Craccivora (cowpea aphid); test: Example B10: activity against Aphis craccivora, pea seedling roots in test solution (systemic/feeding); format: in vivo; conditions: 144 h, roots of infested pea seedlings in test solution, 6 days
Text: as §1
(Mixed Population, Systemic/Feeding)

[12] = tested on: Thrips tabaci (onion thrips); test: Example B3: activity against Thrips tabaci, sprayed sunflower leaf discs (feeding/residual contact, preventive); format: in vivo; conditions: foliar, 144 h, mixed population, 6 days
Text: Activity Against Thrips tabaci (Onion Thrips)
(Mixed Population, Feeding/Residual Contact Activity, Preventive)

[13] = tested on: Plutella xylostella (diamond back moth); test: Example B5: activity against Plutella xylostella, artificial diet in microtiter plate (larvicide, preventive); format: in vivo; conditions: 120 h, L2 larvae, 5 days, read-out: activity (larval mortality, antifeedant, growth regulation)
Experimental: Activity Against Plutella xylostella (Diamond Back Moth)
(Larvicide, Feeding/Residual Contact Activity, Preventive)
24-well microtiter plate (MTP) with artificial diet is treated with test solutions by pipetting. After drying, the MTP's are infested with larvae (L2)(10-15 per well). After an incubation period of 5 days, samples are checked for larval mortality, antifeedant and growth regulation.

[14] = tested on: Frankliniella occidentalis (western flower thrips); test: Example B6: activity against Frankliniella occidentalis, bean leaf discs or bean plants; format: in vivo; conditions: foliar, 6 days (leaf discs) or 14 days (plants) after infestation, read-out: activity (reduction of treated population)
Experimental: Activity Against Frankliniella occidentalis (Western Flower Thrips)
Bean leaf discs on agar in petri dishes or bean plants in a spray chamber are treated with diluted test solutions. After drying leaf discs are cut and placed in plastic cups on the surface of an agar layer and infested with mixed population. 6 days (leaf discs) or 14 days (plants) after the infestation, samples are checked for reduction of treated population and compared to the non treated population.

| Structure (SMILES) | melting point | mortality at 400 ppm [2] | mortality at 25 ppm [3] | pest or weed control at 200 ppm [5] | mortality at 400 ppm [6] | mortality at 400 ppm [7] | mortality at 400 ppm [8] | other results |
| --- | --- | --- | --- | --- | --- | --- | --- | --- |
| COCON1C(=O)C(c2cc(C)ccc2C)=C(OC(=O)CC(C)(C)C)C12CCN(OC)CC2 [P1.5] | 93 to 95 °C | – | – | – | – | – | – | – |
| CCOC(=O)OC1=C(c2c(C)cc(C)cc2C)C(=O)N(OCCOC)C12CCN(OC)CC2 [P1.6] | – | > 80% | > 80% | > 80% | > 80% | > 80% | > 80% | mortality at 400 ppm [1]: > 80%; pest or weed control at 200 ppm [4]: > 80% |
| C=CCON1C(=O)C(c2c(C)cc(C)cc2C)=C(OC(=O)OCC)C12CCN(OC)CC2 [P1.17] | – | – | > 80% | > 80% | > 80% | > 80% | > 80% | mortality at 400 ppm [1]: > 80%; pest or weed control at 200 ppm [4]: > 80%; mortality at 200 ppm [9]: ≥ 80%; mortality at 400 ppm [10]: > 80%; mortality at 400 ppm [11]: > 80% |
| COCON1C(=O)C(c2cc(C)ccc2C)=C(OC)C12CCN(OC)CC2 [P1.31] | 91 to 93 °C | – | – | – | – | – | – | – |
| CCOC(=O)OC1=C(c2c(F)ccc(C)c2Cl)C(=O)N(OCOC)C12CCN(OC)CC2 [P1.61] | 116 to 119 °C | – | – | – | – | – | – | – |
| CCOC(=O)OC1=C(c2c(C)cccc2C)C(=O)N(OC)C12CCN(OC)CC2 [P1.74] | – | > 80% | – | – | > 80% | – | > 80% | mortality at 400 ppm [12]: > 80%; mortality at 400 ppm [13]: > 80% |
| CCOC(=O)OC1=C(c2c(C)cc(Cl)cc2C)C(=O)N(OC)C12CCN(OC)CC2 [P1.114] | 122 to 125 °C | – | – | – | – | – | – | – |
| CON1CCC2(CC1)C(O)=C(c1c(C)cc(C)cc1C)C(=O)N2O [P2.4, 1,4-Dihydroxy-8-methoxy-3-(2,4,6-trimethyl-phenyl)-1,8-diaza-spiro[4.5]dec-3-en-2-one] | – | > 80% | > 80% | > 80% | > 80% | > 80% | > 80% | mortality at 400 ppm [13]: > 80% |
| COCCON1C(=O)C(c2c(C)cc(C)cc2C)=C(O)C12CCN(OC)CC2 [P2.5] | – | > 80% | > 80% | > 80% | > 80% | > 80% | > 80% | mortality at 400 ppm [1]: > 80%; pest or weed control at 200 ppm [4]: > 80%; mortality at 400 ppm [11]: > 80% |
| CON1CCC2(CC1)C(O)=C(c1c(C)cc(C)cc1C)C(=O)N2OC [P2.7] | – | > 80% | > 80% | > 80% | – | > 80% | > 80% | mortality at 400 ppm [1]: > 80%; pest or weed control at 200 ppm [4]: > 80%; mortality at 200 ppm [9]: ≥ 80%; mortality at 400 ppm [12]: > 80%; mortality at 400 ppm [10]: > 80% |
| C#CCON1C(=O)C(c2c(C)cc(C)cc2C)=C(O)C12CCN(OC)CC2 [P2.8, 4-Hydroxy-8-methoxy-1-prop-2-ynyloxy-3-(2,4,6-trimethyl-phenyl)-1,8-diaza-spiro[4.5]dec-3-en-2-one] | – | > 80% | > 80% | > 80% | > 80% | > 80% | > 80% | mortality at 400 ppm [1]: > 80%; pest or weed control at 200 ppm [4]: > 80%; mortality at 200 ppm [9]: ≥ 80%; mortality at 400 ppm [11]: > 80% |
| CCON1C(=O)C(c2c(C)cc(C)cc2C)=C(O)C12CCN(OC)CC2 [P2.9] | – | > 80% | > 80% | > 80% | – | > 80% | > 80% | mortality at 400 ppm [1]: > 80%; pest or weed control at 400 ppm [14]: > 80%; mortality at 200 ppm [9]: ≥ 80%; mortality at 400 ppm [10]: > 80%; mortality at 400 ppm [11]: > 80% |
| CON1CCC2(CC1)C(O)=C(c1c(C)cc(C)cc1C)C(=O)N2OCC1CC1 [P2.13] | – | > 80% | > 80% | – | > 80% | > 80% | > 80% | mortality at 400 ppm [1]: > 80%; pest or weed control at 400 ppm [14]: > 80%; mortality at 200 ppm [9]: ≥ 80%; mortality at 400 ppm [12]: > 80%; mortality at 400 ppm [10]: > 80%; mortality at 400 ppm [11]: > 80% |
| COCON1C(=O)C(c2c(C)cc(Br)cc2C)=C(O)C12CCN(OC)CC2 [P2.14, 3-(4-bromo-2,6-dimethyl-phenyl)-4-hydroxy-8-methoxy-1-methoxymethoxy-1,8-diaza-spiro[4.5]dec-3-en-2-one] | – | > 80% | > 80% | > 80% | > 80% | > 80% | > 80% | pest or weed control at 200 ppm [4]: > 80%; mortality at 400 ppm [12]: > 80%; mortality at 400 ppm [11]: > 80% |
| COCON1C(=O)C(c2c(C)cc(-c3ccc(Cl)cc3)cc2C)=C(O)C12CCN(OC)CC2 [P2.15, 3-(4′-Chloro-3,5-dimethyl-biphenyl-4-yl)-4-hydroxy-8-methoxy-1-methoxymethoxy-1,8-diaza-spiro[4.5]dec-3-en-2-one] | 128 °C (dec.) | – | – | – | – | – | – | – |
| CON1CCC2(CC1)C(O)=C(c1c(C)cc(C)cc1C)C(=O)N2OC1CCCO1 (stereo not shown) [P2.18, 4-Hydroxy-8-methoxy-1-(tetrahydro-furan-2-yloxy)-3-(2,4,6-trimethyl-phenyl)-1,8-diaza-spiro[4.5]dec-3-en-2-one] | – | > 80% | > 80% | > 80% | > 80% | > 80% | > 80% | mortality at 400 ppm [1]: > 80%; pest or weed control at 200 ppm [4]: > 80%; mortality at 200 ppm [9]: ≥ 80%; mortality at 400 ppm [12]: > 80%; mortality at 400 ppm [11]: > 80% |
| CON1CCC2(CC1)C(O)=C(c1c(C)cc(C)cc1C)C(=O)N2OCCOC1CCCCO1 (stereo not shown) [P2.22] | 135 to 137 °C | – | – | – | – | – | – | – |
| COCON1C(=O)C(c2c(F)ccc(C)c2Cl)=C(O)C12CCN(OC)CC2 [P2.60] | 155 to 158 °C | – | – | – | – | – | – | – |
| CON1CCC2(CC1)C(O)=C(c1cc(C)c(C)cc1Cl)C(=O)N2OC1CCCO1 (stereo not shown) [P2.63] | – | – | – | – | – | – | – | mortality at 200 ppm [9]: ≥ 80%; mortality at 400 ppm [13]: > 80% |
| COCCON1C(=O)C(c2cc(Br)c(C)cc2C)=C(O)C12CCN(OC)CC2 [P2.73] | 63 to 64 °C | – | – | – | – | – | – | – |
| CON1CCC2(CC1)C(O)=C(c1cc(Br)c(C)cc1C)C(=O)N2OC [P2.75] | 86 to 87 °C | – | – | – | – | – | – | – |
| COCCON1C(=O)C(c2cc(Br)c(F)cc2C)=C(O)C12CCN(OC)CC2 [P2.87] | 71 to 74 °C | – | – | – | – | – | – | – |
| COCON1C(=O)C(c2cc(Br)c(F)cc2C)=C(O)C12CCN(OC)CC2 [P2.89] | 64 to 67 °C | – | – | – | – | – | – | – |
| CON1CCC2(CC1)C(O)=C(c1c(C)cc(C)cc1C)C(=O)N2OCC1CCCCC1 [P2.96] | 169 to 172 °C | – | – | – | – | – | – | – |
| COCCON1C(=O)C(c2c(C)cc(Cl)cc2C)=C(O)C12CCN(OC)CC2 [P2.101] | 161 to 164 °C | – | – | – | – | – | – | – |
| CON1CCC2(CC1)C(O)=C(c1c(C)cc(Cl)cc1C)C(=O)N2OC [P2.102] | 88 to 92 °C | – | – | – | – | – | – | – |
| COCON1C(=O)C(c2c(C)cc(Cl)cc2C)=C(O)C12CCN(OC)CC2 [P2.104] | 176 to 178 °C | – | – | – | – | – | – | – |
| CON1CCC2(CC1)C(O)=C(c1c(C)cc(Cl)cc1C)C(=O)N2OC1CCCO1 (stereo not shown) [P2.105] | 137 to 139 °C | – | – | – | – | – | – | – |
